Source: PubChem BioAssay (NCI)
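Tested at 5 concentrations; 48 h exposure; 96-well plates; endpoints linearly interpolated, else capped at highest concentration. TGI denotes the concentration required for complete inhibition of growth.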

Experiments:
Assay in all cases: NCI anticancer screen, dose series, 48 h
CAKI-1 renal = system: CAKI-1 renal
TK-10 renal = system: TK-10 renal
PC-3 prostate = system: PC-3 prostate
SNB-19 CNS = system: SNB-19 CNS
MALME-3M melanoma = system: MALME-3M melanoma
A498 renal = system: A498 renal
UACC-257 melanoma = system: UACC-257 melanoma
U251 CNS = system: U251 CNS
SK-MEL-28 melanoma = system: SK-MEL-28 melanoma
IGROV1 ovarian = system: IGROV1 ovarian
SW-620 colon = system: SW-620 colon
MOLT-4 leukemia = system: MOLT-4 leukemia
OVCAR-4 ovarian = system: OVCAR-4 ovarian
SNB-75 CNS = system: SNB-75 CNS
HS 578T breast = system: HS 578T breast
M14 melanoma = system: M14 melanoma
DU-145 prostate = system: DU-145 prostate
MDA-N = system: MDA-N
RXF 393 renal = system: RXF 393 renal
SF-268 CNS = system: SF-268 CNS
SK-MEL-5 melanoma = system: SK-MEL-5 melanoma
HCT-15 colon = system: HCT-15 colon
SK-OV-3 ovarian = system: SK-OV-3 ovarian
OVCAR-8 ovarian = system: OVCAR-8 ovarian
ACHN renal = system: ACHN renal
MDA-MB-435 = system: MDA-MB-435
EKVX NSCLC = system: EKVX NSCLC
COLO 205 colon = system: COLO 205 colon
NCI-H522 lung = system: NCI-H522 lung
SN12C renal = system: SN12C renal
SF-539 CNS = system: SF-539 CNS
MCF7 breast = system: MCF7 breast
NCI-H23 lung = system: NCI-H23 lung
LOX IMVI melanoma = system: LOX IMVI melanoma
CCRF-CEM leukemia = system: CCRF-CEM leukemia
NCI/ADR-RES ovarian = system: NCI/ADR-RES ovarian
HL-60(TB) leukemia = system: HL-60(TB) leukemia
SK-MEL-2 melanoma = system: SK-MEL-2 melanoma
HCT-116 colon = system: HCT-116 colon
MDA-MB-231 breast = system: MDA-MB-231 breast
BT-549 breast = system: BT-549 breast
HOP-62 NSCLC = system: HOP-62 NSCLC
NCI-H226 lung = system: NCI-H226 lung
OVCAR-5 ovarian = system: OVCAR-5 ovarian
T-47D breast = system: T-47D breast
A549 NSCLC = system: A549 NSCLC
UO-31 renal = system: UO-31 renal
SF-295 CNS = system: SF-295 CNS
786-0 renal = system: 786-0 renal
KM12 colon = system: KM12 colon
UACC-62 melanoma = system: UACC-62 melanoma
HT29 colon = system: HT29 colon

Measured: TGI

CC1(CC(=O)OC(C#C[Si](C)(C)C)Cc2ccccc2)OCCO1 (configuration not stated)
> 100 µM: all assays above
